Tests used:
Tpk2-as [1] = experiment: Intracellular H3K4me3 in Tpk2-as mutant with 1NM-PP1; type: cell-based, budding yeast (Saccharomyces cerevisiae); conditions: 25 μM 1NM-PP1, 0.5 hr, Western blot
Description: (§1) To examine the effect of glucose on histone modifications, yeast cells were grown in 2% glucose-containing YPD (Yeast Extract Peptone Dextrose) medium until OD600 of 0.7–1.0. Cells were then collected, washed and resuspended in YP medium for 3 hr followed by treatment with different concentrations of glucose for 0.5 hr. For 1NM-PP1 (MCE, HY-13804) treatment, cells were grown in 2% YPD until OD600 of 0.7–1.0. Cells were then treated with 25 μM 1NM-PP1 for 0.5 hr. For FBP and pyruvate treatment, cells were pre-treated with Zymolase (Mpbio, 08320921) to increase the permeability. In brief, cells were grown in YPD medium until OD600 of 0.7–1.0, centrifuged and resuspended in 1 ml SB buffer (100 mM Sorbitol, 20 mM Tris pH 7.4). 10 μl Zymolase was then added and incubated at 30 °C for 15 min. The spheroplasts were washed and cultured in YPD medium containing different concentrations of FBP and pyruvate for 3 hr.
(§2) Cells were grown in 5 ml YPD or selective medium until OD600 of 0.7–1.0. Cells were harvested and lysed in alkaline lysis buffer (2 M NaOH, 8% 2-mercaptoethanol). After centrifugation, the protein pellet was resuspended in 150 μl 2×SDS-sample buffer. Protein samples were separated by 8–15% SDS-PAGE and transferred to PVDF membrane. […] The protein bands were visualized using the ECL Chemiluminescence Detection Kit (Bio-Rad, 170–5061) and quantified with Image J software (v.1.8.0). […]

WT Tpk2 = experiment: In vitro kinase assay, WT Tpk2, Jhd2 substrate; type: biochemical, budding yeast (Saccharomyces cerevisiae); conditions: 25 μM 1NM-PP1, in vitro kinase assay, 30 °C, Western blot
Description: (§3) 0–300 ng purified Jhd2 was mixed with or without 200 ng TAP purified Tpk2 in 2×kinase reaction buffer (100 mM Tris-HCl pH 7.4, 100 mM MgCl2, 10 mM ATP, 0.2 μM PMSF, 1 mM Na3VO4, 5% glycerol) at 30 °C. Equal aliquots were taken at different time points, and the reaction was quenched by adding 2×SDS-PAGE loading buffer and incubated at 95 °C for 10 min. Boiled samples were resolved on 10% SDS-PAGE and subjected to Western blot analysis.

Tpk1-as = experiment: Intracellular H3K4me3 in Tpk1-as mutant with 1NM-PP1; type: cell-based, budding yeast (Saccharomyces cerevisiae); conditions: 25 μM 1NM-PP1, 0.5 hr, Western blot
Description: as §1, §2

WT cells = experiment: Intracellular Jhd2 phosphorylation in WT cells with 1NM-PP1; type: cell-based, budding yeast (Saccharomyces cerevisiae); conditions: 25 μM 1NM-PP1, 0.5 hr, Western blot
Description: as §1, §2

Tpk3-as = experiment: Intracellular H3K4me3 in Tpk3-as mutant with 1NM-PP1; type: cell-based, budding yeast (Saccharomyces cerevisiae); conditions: 25 μM 1NM-PP1, 0.5 hr, Western blot
Description: as §1, §2

Tpk2-as [2] = experiment: Intracellular Jhd2 phosphorylation in Tpk2-as mutant with 1NM-PP1; type: cell-based, budding yeast (Saccharomyces cerevisiae); conditions: 25 μM 1NM-PP1, 0.5 hr, Western blot
Description: as §1, §2

Tpk2-as [3] = experiment: In vitro kinase assay, Tpk2-as, Jhd2 substrate; type: biochemical, budding yeast (Saccharomyces cerevisiae); conditions: 25 μM 1NM-PP1, in vitro kinase assay, 30 °C, Western blot
Description: as §3

SMILES: CC(C)(C)n1nc(Cc2cccc3ccccc23)c2c(N)ncnc21 [1NM-PP1]
- intracellular H3K4me3, Tpk2-as mutant (Tpk2-as [1]): significantly reduced by 1NM-PP1 in Tpk2-as mutant
- Jhd2 phosphorylation in vitro, WT Tpk2 (WT Tpk2): Jhd2 was phosphorylated by WT Tpk2 but not Tpk2-as mutant when treated with 25 μM 1NM-PP1
- intracellular H3K4me3, Tpk1-as mutant (Tpk1-as): significantly reduced by 1NM-PP1 in Tpk2-as mutant but not Tpk1-as and Tpk3-as mutants
- intracellular Jhd2 phosphorylation, WT cells (WT cells): significantly reduced in Tpk2-as mutant but not WT cells
- intracellular H3K4me3, Tpk3-as mutant (Tpk3-as): significantly reduced by 1NM-PP1 in Tpk2-as mutant but not Tpk1-as and Tpk3-as mutants
- intracellular Jhd2 phosphorylation, Tpk2-as mutant (Tpk2-as [2]): significantly reduced in Tpk2-as mutant
- inhibition of Tpk2-catalyzed Jhd2 phosphorylation in vitro, Tpk2-as (Tpk2-as [3]): directly inhibited Tpk2-catalyzed Jhd2 phosphorylation
